Reference: patent publication US20260262643A1, “HERBICIDAL BENZOXAZINES” (FMC CORPORATION, priority 2022, published 2026)
Read-outs that look alike come from different tables or passages of the source.

Assays:
blackgrass = test: Test A preemergence; format: in vivo, Alopecurus myosuroides; conditions: Alopecurus myosuroides, pre-emergence, 240 h, read-out: Plant response rating, Blackgrass; for pest or weed control at 125 g/ha: 125 g ai/ha; for pest or weed control at 500 g/ha: 500 g ai/ha
Procedure, shortened: (§1)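 Weeds and crops in loam–sand blend were sprayed preemergence onto soil or postemergence at 2–10 cm (one- to two-leaf stage). Test chemicals were in a non-phytotoxic solvent with surfactant. After 10 days in the greenhouse, injury was rated visually against untreated controls on a 0 (no effect) to 100 (complete control) scale.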

goosegrass [1] = test: Test A preemergence; format: in vivo, Eleusine indica; conditions: Eleusine indica, pre-emergence, 240 h, read-out: Plant response rating, Goosegrass; for pest or weed control at 125 g/ha: 125 g ai/ha; for pest or weed control at 500 g/ha: 500 g ai/ha
Procedure, shortened: as §1

kochia = test: Test A preemergence; format: in vivo, Bassia scoparia; conditions: Bassia scoparia, pre-emergence, 240 h, read-out: Plant response rating, Kochia; for pest or weed control at 125 g/ha: 125 g ai/ha; for pest or weed control at 500 g/ha: 500 g ai/ha
Procedure, shortened: as §1

ryegrass, Italian [2] = test: Test A preemergence; format: in vivo, Lolium multiflorum; conditions: Lolium multiflorum, pre-emergence, 240 h, read-out: Plant response rating, Ryegrass, Italian; for pest or weed control at 125 g/ha: 125 g ai/ha; for pest or weed control at 500 g/ha: 500 g ai/ha
Procedure, shortened: as §1

wheat = test: Test A preemergence; format: in vivo, Triticum aestivum; conditions: Triticum aestivum, pre-emergence, 240 h, read-out: Plant response rating, Wheat; for plant injury at 125 g/ha: 125 g ai/ha; for plant injury at 500 g/ha: 500 g ai/ha
Procedure, shortened: as §1

corn = test: Test A postemergence; format: in vivo, Zea mays; conditions: Zea mays, post-emergence, 240 h; for Corn plant response rating (crop injury, 0 = no effect, 100 = complete kill) at 500 g/ha: 500 g ai/ha
Procedure, shortened: as §1

foxtail, giant = test: Test A postemergence; format: in vivo, Setaria faberi; conditions: Setaria faberi, post-emergence, 240 h; for pest or weed control at 125 g/ha: 125 g ai/ha; for pest or weed control at 500 g/ha: 500 g ai/ha
Procedure, shortened: as §1

goosegrass [3] = test: Test A postemergence; format: in vivo, Eleusine indica; conditions: Eleusine indica, post-emergence, 240 h; for pest or weed control at 125 g/ha: 125 g ai/ha; for pest or weed control at 500 g/ha: 500 g ai/ha
Procedure, shortened: as §1

ragweed = test: Test A postemergence; format: in vivo, Ambrosia artemisiifolia; conditions: Ambrosia artemisiifolia, post-emergence, 240 h; for pest or weed control at 125 g/ha: 125 g ai/ha; for pest or weed control at 500 g/ha: 500 g ai/ha
Procedure, shortened: as §1

ryegrass, Italian [4] = test: Test A postemergence; format: in vivo, Lolium multiflorum; conditions: Lolium multiflorum, post-emergence, 240 h; for pest or weed control at 125 g/ha: 125 g ai/ha; for pest or weed control at 500 g/ha: 500 g ai/ha
Procedure, shortened: as §1

soybean = test: Test A postemergence; format: in vivo, Glycine max; conditions: Glycine max, post-emergence, 240 h; for plant injury at 125 g/ha: 125 g ai/ha; for plant injury at 500 g/ha: 500 g ai/ha
Procedure, shortened: as §1

galium = test: Test A postemergence; format: in vivo, Galium aparine; conditions: Galium, post-emergence, 240 h; for pest or weed control at 125 g/ha: 125 g ai/ha; for pest or weed control at 500 g/ha: 500 g ai/ha
Procedure, shortened: as §1

ducksalad = test: Test B flooded paddy test; format: in vivo, Heteranthera limosa; conditions: Heteranthera limosa, 312 h, 250 g ai/ha, Flood, 13 days, 0 to 100 scale (0 no effect, 100 complete control); read-out: Plant response rating, Ducksalad
Procedure, shortened: (§2)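 Application into standing water (3 cm above soil) at the two-leaf stage; flood depth held constant. Evaluation: day 13, visual comparison with controls, 0 = no injury, 100 = complete control.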

sedge, umbrella = test: Test B flooded paddy test; format: in vivo, Cyperus difformis; conditions: Cyperus difformis, 312 h; 250 g ai/ha, Flood, 13 days, 0 to 100 scale (0 no effect, 100 complete control); read-out: Plant response rating, Sedge, Umbrella
Procedure, shortened: as §2

[5] = visual injury after 10 days, 0 to 100 scale, 0 is no effect, 100 is complete control
[6] = 0 to 100 scale (0 no effect, 100 complete control), 10 days
[7] = postemergence, 10 days, visual injury, 0 to 100 scale (0 no effect, 100 complete control), read-out: Plant response rating, Foxtail, Giant
[8] = postemergence, 10 days, visual injury, 0 to 100 scale (0 no effect, 100 complete control), read-out: Plant response rating, Goosegrass
[9] = postemergence, 10 days, visual injury, 0 to 100 scale (0 no effect, 100 complete control), read-out: Plant response rating, Ragweed
[10] = postemergence, 10 days, visual injury, 0 to 100 scale (0 no effect, 100 complete control), read-out: Plant response rating, Ryegrass, Italian
[11] = postemergence, 10 days, visual injury, 0 to 100 scale (0 no effect, 100 complete control), read-out: Plant response rating, Soybean
[12] = postemergence, 10 days, visual injury, 0 to 100 scale (0 no effect, 100 complete control), read-out: Plant response rating, Galium

COc1ccc(-n2cncn2)cc1C(=O)N1C[C@H](C)Oc2c(C)cccc21 [Compound 63, [(2S)-2,3-Dihydro-2,8-dimethyl-4H-1,4-benzoxazin-4-yl][2-methoxy-5-(1H-1,2,4-triazol-1-yl)phenyl]methanone]
pest or weed control at 125 g/ha (blackgrass; [5]): 80% | pest or weed control at 500 g/ha (blackgrass; [6]): 90% | pest or weed control at 125 g/ha (goosegrass [1]; [5]): 100% | pest or weed control at 500 g/ha (goosegrass [1]; [6]): 100% | pest or weed control at 125 g/ha (kochia; [5]): 30% | pest or weed control at 500 g/ha (kochia; [6]): 40% | pest or weed control at 125 g/ha (ryegrass, Italian [2]; [5]): 90% | pest or weed control at 500 g/ha (ryegrass, Italian [2]; [6]): 100% | plant injury at 125 g/ha (wheat; [5]): 40% | plant injury at 500 g/ha (wheat; [6]): 90% | Corn plant response rating (crop injury, 0 = no effect, 100 = complete kill) at 125 g/ha (corn; 125 g ai/ha, postemergence, 10 days, visual injury, 0 to 100 scale (0 no effect, 100 complete control)): 80% | Corn plant response rating (crop injury, 0 = no effect, 100 = complete kill) at 500 g/ha (corn; Postemergence, 0 to 100 scale): 80% | pest or weed control at 125 g/ha (foxtail, giant; [7]): 90% | pest or weed control at 500 g/ha (foxtail, giant; Postemergence, 0 to 100 scale, read-out: Plant response rating, Foxtail, Giant): 90% | pest or weed control at 125 g/ha (goosegrass [3]; [8]): 70% | pest or weed control at 500 g/ha (goosegrass [3]; Postemergence, 0 to 100 scale, read-out: Plant response rating, Goosegrass): 80% | pest or weed control at 125 g/ha (ragweed; [9]): 40% | pest or weed control at 500 g/ha (ragweed; Postemergence, 0 to 100 scale, read-out: Plant response rating, Ragweed): 40% | pest or weed control at 125 g/ha (ryegrass, Italian [4]; [10]): 80% | pest or weed control at 500 g/ha (ryegrass, Italian [4]; Postemergence, 0 to 100 scale, read-out: Plant response rating, Ryegrass, Italian): 100% | plant injury at 125 g/ha (soybean; [11]): 100% | plant injury at 500 g/ha (soybean; Postemergence, 0 to 100 scale, read-out: Plant response rating, Soybean): 100% | pest or weed control at 125 g/ha (galium; [12]): 100% | pest or weed control at 500 g/ha (galium; Postemergence, 0 to 100 scale, read-out: Plant response rating, Galium): 100% | pest or weed control at 250 g/ha (ducksalad): 90% | pest or weed control at 250 g/ha (sedge, umbrella): 98%

Cc1cccc2c1O[C@@H](C)CN2C(=O)c1cccc(-n2cn[nH]c2=O)c1 [Compound 122, 4-[3-[[(2S)-2,3-Dihydro-2,8-dimethyl-4H-1,4-benzoxazin-4-yl]carbonyl]phenyl]-2,4-dihydro-3H-1,2,4-triazol-3-one]
pest or weed control at 125 g/ha (blackgrass; [5]): 10% | pest or weed control at 500 g/ha (blackgrass; [5]): 50% | pest or weed control at 125 g/ha (goosegrass [1]; [5]): 0% | pest or weed control at 500 g/ha (goosegrass [1]; [5]): 90% | pest or weed control at 125 g/ha (kochia; [5]): 0% | pest or weed control at 500 g/ha (kochia; [5]): 10% | pest or weed control at 125 g/ha (ryegrass, Italian [2]; [5]): 20% | pest or weed control at 500 g/ha (ryegrass, Italian [2]; [5]): 70% | plant injury at 125 g/ha (wheat; [5]): 0% | plant injury at 500 g/ha (wheat; [5]): 0% | plant injury at 125 g/ha (corn; 125 g ai/ha, postemergence, 10 days, 0 to 100 scale (0 no effect, 100 complete control), read-out: Corn plant response rating): 10% | Corn plant response rating (crop injury, 0 = no effect, 100 = complete kill) at 500 g/ha (corn; postemergence, 10 days, visual injury, 0 to 100 scale (0 no effect, 100 complete control)): 60% | pest or weed control at 125 g/ha (foxtail, giant; postemergence, 10 days, 0 to 100 scale (0 no effect, 100 complete control), read-out: Foxtail, Giant plant response rating): 20% | pest or weed control at 500 g/ha (foxtail, giant; [7]): 50% | pest or weed control at 125 g/ha (goosegrass [3]; postemergence, 10 days, 0 to 100 scale (0 no effect, 100 complete control), read-out: Goosegrass plant response rating): 0% | pest or weed control at 500 g/ha (goosegrass [3]; [8]): 60% | pest or weed control at 125 g/ha (ragweed; postemergence, 10 days, 0 to 100 scale (0 no effect, 100 complete control), read-out: Ragweed plant response rating): 0% | pest or weed control at 500 g/ha (ragweed; [9]): 0% | pest or weed control at 125 g/ha (ryegrass, Italian [4]; postemergence, 10 days, 0 to 100 scale (0 no effect, 100 complete control), read-out: Ryegrass, Italian plant response rating): 0% | pest or weed control at 500 g/ha (ryegrass, Italian [4]; [10]): 30% | plant injury at 125 g/ha (soybean; postemergence, 10 days, 0 to 100 scale (0 no effect, 100 complete control), read-out: Soybean plant response rating): 50% | plant injury at 500 g/ha (soybean; [11]): 90% | pest or weed control at 125 g/ha (galium; postemergence, 10 days, 0 to 100 scale (0 no effect, 100 complete control), read-out: Galium plant response rating): 50% | pest or weed control at 500 g/ha (galium; [12]): 50% | pest or weed control at 250 g/ha (ducksalad): 0% | pest or weed control at 250 g/ha (sedge, umbrella): 0%
